The assay addresses T1, Bovine PDE6 (Bos taurus, UniProt P11541+P23439).
T1 construct: Hypotonic extracts were prepared by suspending isolated ROS; tissue Dr. N. Virmaux, INSERM U338, Strasbourg; host or cells: bovine retina, rod outer segment hypotonic extract
T1 sequence (P11541 2-856 limits assumed): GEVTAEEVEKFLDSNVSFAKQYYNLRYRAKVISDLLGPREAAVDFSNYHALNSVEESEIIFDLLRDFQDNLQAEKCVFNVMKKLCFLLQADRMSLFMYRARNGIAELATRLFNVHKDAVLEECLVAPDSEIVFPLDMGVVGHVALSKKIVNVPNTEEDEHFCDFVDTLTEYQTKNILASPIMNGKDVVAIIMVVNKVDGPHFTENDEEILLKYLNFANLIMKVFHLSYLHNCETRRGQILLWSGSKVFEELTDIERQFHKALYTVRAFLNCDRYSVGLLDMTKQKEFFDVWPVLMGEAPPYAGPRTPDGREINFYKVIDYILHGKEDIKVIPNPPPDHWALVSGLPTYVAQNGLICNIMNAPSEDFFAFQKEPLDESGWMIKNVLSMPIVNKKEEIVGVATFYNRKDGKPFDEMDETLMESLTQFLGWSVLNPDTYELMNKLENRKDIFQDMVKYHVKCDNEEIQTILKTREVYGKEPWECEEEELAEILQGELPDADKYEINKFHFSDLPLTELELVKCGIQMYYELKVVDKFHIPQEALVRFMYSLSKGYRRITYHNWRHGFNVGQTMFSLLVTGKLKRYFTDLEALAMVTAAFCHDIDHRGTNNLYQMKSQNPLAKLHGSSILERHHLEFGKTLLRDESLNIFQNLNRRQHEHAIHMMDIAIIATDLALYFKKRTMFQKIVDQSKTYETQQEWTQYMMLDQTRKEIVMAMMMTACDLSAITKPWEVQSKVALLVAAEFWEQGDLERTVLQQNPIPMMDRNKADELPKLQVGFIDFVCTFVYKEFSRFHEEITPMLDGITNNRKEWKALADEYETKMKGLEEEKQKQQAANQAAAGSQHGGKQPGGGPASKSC
T1 sequence (P23439 2-850 limits assumed): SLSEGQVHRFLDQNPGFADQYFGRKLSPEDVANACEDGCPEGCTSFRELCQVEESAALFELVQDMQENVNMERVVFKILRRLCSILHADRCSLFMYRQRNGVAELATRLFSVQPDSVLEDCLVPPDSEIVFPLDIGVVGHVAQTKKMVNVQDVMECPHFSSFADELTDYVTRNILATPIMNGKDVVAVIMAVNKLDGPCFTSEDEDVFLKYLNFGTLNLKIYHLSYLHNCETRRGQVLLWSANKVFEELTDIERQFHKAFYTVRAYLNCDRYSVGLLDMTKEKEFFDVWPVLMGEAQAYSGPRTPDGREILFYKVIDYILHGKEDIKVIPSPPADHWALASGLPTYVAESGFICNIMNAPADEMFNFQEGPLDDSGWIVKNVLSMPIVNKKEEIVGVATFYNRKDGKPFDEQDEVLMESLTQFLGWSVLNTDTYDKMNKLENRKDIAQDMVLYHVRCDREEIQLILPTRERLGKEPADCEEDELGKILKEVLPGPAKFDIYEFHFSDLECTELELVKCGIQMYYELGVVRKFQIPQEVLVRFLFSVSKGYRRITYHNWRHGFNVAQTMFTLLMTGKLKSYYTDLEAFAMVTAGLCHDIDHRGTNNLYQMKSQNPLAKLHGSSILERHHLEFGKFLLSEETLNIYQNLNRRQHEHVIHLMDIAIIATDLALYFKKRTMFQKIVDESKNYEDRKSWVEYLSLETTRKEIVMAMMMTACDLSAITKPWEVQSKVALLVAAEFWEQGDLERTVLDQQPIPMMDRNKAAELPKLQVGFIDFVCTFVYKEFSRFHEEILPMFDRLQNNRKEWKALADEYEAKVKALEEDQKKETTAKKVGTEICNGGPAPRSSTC
T1 sequence (P04972 1-87 partner): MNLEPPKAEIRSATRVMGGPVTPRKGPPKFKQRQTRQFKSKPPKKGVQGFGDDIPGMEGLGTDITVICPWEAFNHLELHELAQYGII
The experiment in a line: PDE6 enzyme inhibition, IC50 determination. The format is biochemical. The method, then:
Bovine PDE6 was supplied by Dr. N. Virmaux, INSERM U338, Strasbourg. Bovine retinas were prepared as described by Virmaux et al., FEBS Letters, 12(6), pp. 325-328 (1971) and see also, A. Sitaramayya et al., Exp. Eye Res., 25, pp. 163-169 (1977). Briefly, unless stated otherwise, all operations were done in the cold and in dim red light. Eyes were kept in the cold and in the dark for up to four hours after slaughtering.
Preparation of bovine retinal outer segment (ROS) basically followed procedures described by Schichi et al., J. Biol. Chem., 224:529 (1969). In a typical experiment, 35 bovine retinas were ground in a mortar with 35 mL 0.066 M phosphate buffer, pH 7.0, made up to 40% with sucrose, followed by homogenization in a Potter homogenizer (20 up and down strokes). The suspension was centrifuged at 25,000×g for 20 minutes. The pellet was homogenized in 7.5 mL 0.006 M phosphate buffer (40% in sucrose), and carefully layered under 7.5 mL of phosphate buffer (containing no sucrose). Centrifugation was conducted in a swing-out rotor at 45,000×g for 20 minutes, and produced a pellet which is black at the bottom, and also a red band at the interface 0.066 M. phosphate—40% sucrose/0.066 M phosphate (crude ROS). The red material at the interface was removed, diluted with phosphate buffer, spun down to a pellet, and redistributed in buffered 40% sucrose as described above. This procedure was repeated 2 or 3 times until no pellet was formed. The purified ROS was washed in phosphate buffer and finally spun down to a pellet at 25,000×g for 20 minutes. All materials were then kept frozen until used.
Hypotonic extracts were prepared by suspending isolated ROS in 10 mM Tris-Cl pH 7.5, 1 mM EDTA, and 1 mM dithioerythritol, followed by centrifugation at 100,000×g for 30 minutes.
The preparation was reported to have a specific activity of about 35 nmoles cGMP hydrolyzed per minute per milligram protein.
Biophys. Acta, 384:430 (1975).

For `CN1CC(=O)N2[C@H](c3ccc4c(c3)OCO4)c3[nH]c4ccccc4c3C[C@@H]2C1=O` [Compound 5, (6R-trans)-6-(1,3-benzodioxol-5-yl)-2,3,6,7,12,12a-hexahydro-2-methylpyrazino[1′,2′:1,6]pyrido[3,4-b]indole-1,4-dione], the midpoint of inhibition, the IC50, lay at 3.4 µM.

The record behind these values is patent US6451807B1, “Methods of treating sexual dysfunction in an individual suffering from a retinal disease, class 1 congestive heart failure, or myocardial infarction using a PDE5 inhibitor” (Lilly Icos, LLC., priority 1999, dated 2002).
